Eleven compounds from PubChem BioAssay AID743471 (Broad Institute, 2014) can be followed below.

For this test, the system named is HepG2 viability, ATP luminescence (CellTiter-Glo), 72 h. Description: viability loss in HepG2 hepatoma cells – cell-based, luminescence, dry powder, set 12, cytotoxicity control, dose response (AID 743471).

In the case of `COc1cccc2c1C(=O)c1c(O)c3c(c(O)c1C2=O)C[C@@](O)(C(=O)CO)C[C@@H]3O[C@H]1C[C@H](N)[C@H](O)[C@H](C)O1`, the AC35 was 0.0577 µM.
As for `Nc1ncnc2c1c(-c1cccc(OCc3ccccc3)c1)cn2C1CC(CN2CCCC2)C1` (stereo unspecified), the AC35 is 9.61 µM.
Consider `N#CC1=C(N)Oc2cc(O)ccc2C1c1cccc(Br)c1` (stereo unspecified), for which the AC35 is 13.7 µM.
In the case of `COc1ccc(C2=Nn3c(nnc3-c3ccccc3)SC2)cc1OC`, the AC35 is 20.2 µM.
Then `COc1ccc(-c2ccc3c(c2)[C@H]2[C@H](CCN2S(=O)(=O)c2ccc(OC)cc2)[C@@H](CO)N3C)cc1`, with 21.4 µM.
On to `CC(C)N1c2ccccc2C(c2ccc(F)cc2)C1/C=C/C(O)CC(O)CC(=O)O` (stereo unspecified), for which the AC35 is 22.3 µM.
On to `CCc1c2c(nc3ccc(O)cc13)-c1cc3c(c(=O)n1C2)COC(=O)C3(O)CC` (stereo unspecified), for which the AC35 was 0.241 µM.
As to `CC(C)(O)CCc1ccc(O)c2c(=O)c3c(O)c4c(cc3oc12)O[C@H]1OC=C[C@@]41O`, the AC35 was 0.065 µM.
As for `CN1CCN(CCOc2cc(OC3CCOCC3)c3c(Nc4c(Cl)ccc5c4OCO5)ncnc3c2)CC1`, the AC35 is 25.4 µM.
Then `N#Cc1ccc(-c2ccc3c(c2)[C@H]2[C@H](CCN2S(=O)(=O)c2cccc(F)c2)[C@@H](CO)N3)cc1`, with 24.5 µM; and `N#CC1=C(N)Oc2cc(N)ccc2C1c1ccccc1` (stereo unspecified), with 15 µM.
